We go through ten compounds from ChEMBL document CHEMBL1909046, “DrugMatrix in vitro pharmacology data”.

In experiment [1] the target is Beta-2 adrenergic receptor (Homo sapiens, UniProt P07550). The experiment can be described thus: DRUGMATRIX: Adrenergic beta2 radioligand binding (ligand: [3H] CGP-12177). Type of experiment: cell membranes, CHO, Membrane. The following applies: Not Active = under 50% inhibition at 10 µM.
For experiment [2], the target named is Beta-3 adrenergic receptor (Homo sapiens, UniProt P13945). The experiment is described as follows: DRUGMATRIX: Adrenergic beta3 radioligand binding (ligand: [125I] Cyanopindolol). It is filed as cell membranes, HEK293, Membrane. The following applies: hek293; Not Active = under 50% inhibition at 10 µM.
Experiment [3] addresses T1, Leukotriene C4 synthase (Cavia porcellus, UniProt A6XA80).
T1 sequence (A6XA80 whole entry): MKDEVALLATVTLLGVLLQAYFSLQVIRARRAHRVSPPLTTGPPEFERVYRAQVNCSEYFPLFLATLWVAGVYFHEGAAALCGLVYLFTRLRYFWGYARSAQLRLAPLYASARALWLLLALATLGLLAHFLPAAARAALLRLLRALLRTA
Type of experiment: tissue-based, Lung.

Experiment [4] addresses Acetylcholinesterase (Homo sapiens, UniProt P22303). The experiment can be described thus: DRUGMATRIX: Acetylcholinesterase enzyme inhibition (substrate: acetylthiocholine). It is filed as cell-based, HEK293. The following applies: hek293; Not Active = under 50% inhibition at 10 µM.
In experiment [5] the target is Receptor tyrosine-protein kinase erbB-2 (Homo sapiens, UniProt P04626). The experiment can be described thus: biochemical. It is filed as cell-based, Insect cells. The following applies: insect cells.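 Note: inhibition of HER2 kinase enzyme activity, measured with Poly(Glu:Tyr) as the phosphorylation substrate; in other assays of this panel Not Active means under 50% inhibition at 10 µM.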
Experiment [6] is described as follows: DRUGMATRIX: Sigma2 radioligand binding (ligand: [3H] Ifenprodil). It is filed as cell membranes, Rattus norvegicus, Wistar, Brain, Membrane. The following applies: Not Active = under 50% inhibition at 10 µM.

Beta-3 adrenergic receptor, sequence (P13945 whole entry): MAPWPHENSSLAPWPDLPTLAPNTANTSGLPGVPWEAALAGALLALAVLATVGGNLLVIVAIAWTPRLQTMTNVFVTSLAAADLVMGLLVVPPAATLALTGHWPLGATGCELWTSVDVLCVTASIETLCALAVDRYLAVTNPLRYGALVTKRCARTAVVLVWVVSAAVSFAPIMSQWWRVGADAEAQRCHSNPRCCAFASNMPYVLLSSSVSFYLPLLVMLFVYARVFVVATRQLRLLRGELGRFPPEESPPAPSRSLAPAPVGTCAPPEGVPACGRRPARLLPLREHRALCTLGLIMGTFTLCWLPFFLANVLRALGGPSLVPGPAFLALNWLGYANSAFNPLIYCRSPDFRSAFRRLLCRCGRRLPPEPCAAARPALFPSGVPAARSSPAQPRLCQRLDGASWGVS
Acetylcholinesterase, sequence (P22303 whole entry): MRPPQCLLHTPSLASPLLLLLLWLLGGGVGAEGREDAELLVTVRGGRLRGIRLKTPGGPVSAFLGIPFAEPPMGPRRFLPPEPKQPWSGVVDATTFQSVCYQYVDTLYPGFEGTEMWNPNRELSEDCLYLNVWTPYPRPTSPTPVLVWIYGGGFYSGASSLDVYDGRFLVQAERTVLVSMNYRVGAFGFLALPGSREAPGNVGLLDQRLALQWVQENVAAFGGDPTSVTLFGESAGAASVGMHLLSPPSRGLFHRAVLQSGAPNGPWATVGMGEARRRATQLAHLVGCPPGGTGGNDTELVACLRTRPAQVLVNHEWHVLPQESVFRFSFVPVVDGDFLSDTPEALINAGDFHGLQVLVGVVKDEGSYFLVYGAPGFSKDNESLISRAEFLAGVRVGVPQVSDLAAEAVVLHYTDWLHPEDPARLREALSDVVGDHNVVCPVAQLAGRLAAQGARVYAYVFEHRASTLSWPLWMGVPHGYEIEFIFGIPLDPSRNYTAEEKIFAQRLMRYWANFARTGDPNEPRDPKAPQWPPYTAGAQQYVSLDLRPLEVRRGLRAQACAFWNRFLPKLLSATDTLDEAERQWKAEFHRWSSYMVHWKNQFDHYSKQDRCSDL

A word on the IC50: it is the concentration needed to halve the response being measured. The term Ki denotes a dissociation constant, usually derived from enzyme kinetics or from competition with a known ligand. Regarding `CCS(=O)(=O)CCn1c([N+](=O)[O-])cnc1C` [TINIDAZOLE], the IC50 result in experiment [1] (cho), in experiment [2], in experiment [3], in experiment [4], in experiment [5] and in experiment [6] was “Not Active” in each case. For the same compound, the Ki result in experiment [6] is reported as “Not Active”.

Turning to `C[C@@H]1C[C@H]2[C@@H]3CCC4=CC(=O)C=C[C@]4(C)C3=CC[C@]2(C)[C@H]1C(=O)CN1CCN(c2cc(N3CCCC3)nc(N3CCCC3)n2)CC1` [TIRILAZAD], the IC50 is 22.7 µM in experiment [1] (read-out: IC50); “Not Active” in experiment [2]; “Not Active” in experiment [3]; “Not Active” in experiment [4]; “Not Active” in experiment [5]; “Not Active” in experiment [6]. The Ki was 15.6 µM in experiment [1] (read-out: Ki) and “Not Active” in experiment [6].

Take `NC[C@H]1O[C@H](O[C@H]2[C@H](O)[C@@H](O[C@H]3O[C@H](CO)[C@@H](O)[C@H](N)[C@H]3O)[C@H](N)C[C@@H]2N)[C@H](N)C[C@@H]1O` [TOBRAMYCIN]: the IC50 entry in experiment [1] (cho), in experiment [2], in experiment [3], in experiment [4], in experiment [5] and in experiment [6] was “Not Active” each time. Besides, the Ki entry in experiment [6] is “Not Active”.

For the compound `O=C(O)C(Cl)(Cl)Cl` [TRICHLOROACETIC ACID], the IC50 result in experiment [1] (cho), in experiment [2], in experiment [3], in experiment [4], in experiment [5] and in experiment [6] was “Not Active” each time. In addition, the Ki entry in experiment [6] is “Not Active”.

Take `COc1ccc(CN2CCNCC2)c(OC)c1OC` [TRIMETAZIDINE]: the IC50 result in experiment [1] (cho), in experiment [2], in experiment [3], in experiment [4], in experiment [5] and in experiment [6] was “Not Active” throughout. In addition, the Ki entry in experiment [6] was “Not Active”.

As for `CC(=O)O[C@H]1C[C@@H]2CC[C@@H]3[C@H](CC[C@@]4(C)[C@H]3C[C@H]([N+]3(C)CCCCC3)[C@@H]4OC(C)=O)[C@@]2(C)C[C@@H]1N1CCCCC1.[Br-]` [VECURONIUM BROMIDE], the IC50 entry in experiment [1] (cho), in experiment [2], in experiment [3], in experiment [4], in experiment [5] and in experiment [6] was “Not Active” throughout. In addition, the Ki result in experiment [6] is “Not Active”.

In the case of `COc1cc(C(=O)NS(=O)(=O)c2ccccc2C)ccc1Cc1cn(C)c2ccc(NC(=O)OC3CCCC3)cc12` [ZAFIRLUKAST], the IC50 result in experiment [1] (cho), in experiment [2], in experiment [3], in experiment [4], in experiment [5] and in experiment [6] was “Not Active” in each case. Further, the Ki entry in experiment [6] is “Not Active”.

With `Cc1cn([C@H]2C[C@H](N=[N+]=[N-])[C@@H](CO)O2)c(=O)[nH]c1=O` [ZIDOVUDINE], the IC50 result in experiment [1] (cho), in experiment [2], in experiment [3], in experiment [4], in experiment [5] and in experiment [6] was “Not Active” each time. For the same compound, in experiment [6], the Ki entry is recorded as “Not Active”.

As to STANNOUS FLUORIDE, the IC50 result in experiment [1] (cho), in experiment [2], in experiment [3], in experiment [4], in experiment [5] and in experiment [6] was “Not Active” throughout. In addition, the Ki entry in experiment [1] (cho), in experiment [2], in experiment [3], in experiment [4], in experiment [5] and in experiment [6] was “Not Active” throughout.

On to THIMEROSAL, for which the IC50 entry in experiment [1] (cho), in experiment [2], in experiment [3], in experiment [4], in experiment [5] and in experiment [6] was “Not Active” each time. In addition, the Ki result in experiment [1] (cho), in experiment [2], in experiment [3], in experiment [4], in experiment [5] and in experiment [6] was “Not Active” throughout.
